Measurements as given in the NIST ThermoML archive (doi:10.1021/je400622g).

Columns and labels:
[1] = xn = mol fraction of the nth substance listed; conditions: 298.15 K, Liquid, Vibrating tube method
[2] = Liquid; for mass density: 298.15 K, Vibrating tube method
[3] = refractive index (Na D-line) (dimensionless); conditions: 298.15 K; 101.33 kPa; Liquid; Standard Abbe refractometry

CCCO [propan-1-ol] + CCCOC(C)=O
Conditions	mass density [kg/m3]
[1], x2 = 0	799.6

CCCOC(C)=O [propyl ethanoate]
Conditions	mass density [kg/m3]
[2]	882.4

Conditions	vapor or sublimation pressure [kPa]
[2], 446.02 K, Ebulliometric method (Recirculating still)	600

CCCO [propan-1-ol] + CCOC(C)=O
Conditions	mass density [kg/m3]
[1], x2 = 0	799.6

CCCOC(C)=O [propyl ethanoate] + CCCO
[1]
Conditions	mass density [kg/m3]
x1 = 0.0544	805.9
x1 = 0.0997	810.9
x1 = 0.1515	816.5
x1 = 0.1951	821
x1 = 0.2503	826.4
x1 = 0.3164	832.6
x1 = 0.3481	835.4
x1 = 0.4144	841.2
x1 = 0.4959	847.9
x1 = 0.5463	851.8
x1 = 0.6051	856.2
x1 = 0.6968	862.8
x1 = 0.7528	866.6
x1 = 0.7893	869
x1 = 0.7984	869.7
x1 = 0.8531	873.2
x1 = 0.8873	875.4
x1 = 0.9521	879.4
x1 = 1	882.4

CCCO [propan-1-ol]
Conditions	mass density [kg/m3]
[2]	799.6

Conditions	vapor or sublimation pressure [kPa]
[2], 427.2 K, Ebulliometric method (Recirculating still)	600

COC(C)=O [methyl ethanoate]
Conditions	vapor or sublimation pressure [kPa]
[2], 393.01 K, Ebulliometric method (Recirculating still)	600

CCOC(C)=O [ethyl acetate]
Conditions	mass density [kg/m3]	refractive index
[2]	894.5	–
[3]	–	1.3698

Conditions	vapor or sublimation pressure [kPa]
[2], 417.02 K, Ebulliometric method (Recirculating still)	600

Conditions	Normal boiling temperature [°C]
[2], Ebulliometric method (Recirculating still)	77.04

CCOC(C)=O [ethyl acetate] + CCCO
[1]
Conditions	mass density [kg/m3]
x1 = 0.0442	804.5
x1 = 0.0911	809.6
x1 = 0.1433	815.2
x1 = 0.201	821.3
x1 = 0.2417	825.5
x1 = 0.2986	831.4
x1 = 0.3435	835.9
x1 = 0.4654	847.6
x1 = 0.5534	855.8
x1 = 0.6461	864.2
x1 = 0.6917	868.2
x1 = 0.7647	874.5
x1 = 0.8037	877.9
x1 = 0.8347	880.5
x1 = 0.8535	882.1
x1 = 0.9053	886.4
x1 = 0.9649	891.4
x1 = 1	894.5
